Data taken from patent US9682141B2, “Combination of kinase inhibitors and uses thereof” (INTELLIKINE LLC, priority 2011, dated 2017).
Like-named read-outs stand apart in the source and are kept apart here.

Assays:
Format in all cases: biochemical
PI3K α = PI3K α (Homo sapiens (Human), UniProt P42336); experiment: PI 3-Kinase (human) HTRF assay, p110α/p85α
PI3K δ = PI3K δ (Homo sapiens (Human), UniProt O00329); experiment: PI 3-Kinase (human) HTRF assay, p110δ/p85α
PI3K γ = PI3K γ (Homo sapiens (Human), UniProt P48736); experiment: PI 3-Kinase (human) HTRF assay, p110γ
Description: An exemplary system is PI 3-Kinase (human) HTRF™ Assay from Upstate. […] Briefly, the assay is a time resolved FRET assay that indirectly measures PIP3 product formed by the activity of a PI3-K. The kinase reaction is performed in a microtitre plate (e.g., a 384 well microtitre plate). The total reaction volume is approximately 20 ul per well. In the first step, each well receives 2 ul of test compound in 20% dimethylsulphoxide resulting in a 2% DMSO final concentration. Next, approximately 14.5 ul of a kinase/PIP2 mixture (diluted in 1× reaction buffer) is added per well for a final concentration of 0.25-0.3 ug/ml kinase and 10 μM PIP2. The plate is sealed and incubated for 15 minutes at room temperature. To start the reaction, 3.5 ul of ATP (diluted in 1× reaction buffer) is added per well for a final concentration of 10 μM ATP. The plate is sealed and incubated for 1 hour at room temperature. The reaction is stopped by adding 5 ul of Stop Solution per well and then 5 ul of Detection Mix is added per well. The plate is sealed, incubated for 1 hour at room temperature, and then read on an appropriate plate reader. Data is analyzed and IC50s are generated using GraphPad Prism 5. For PI3K α, β, δ, and γ, the nM concentration of inhibitor to reach IC50 is provided.

mTORC = mTORC (Homo sapiens (Human), UniProt P42345); experiment: mTOR inhibition assay (radiometric or LanthaScreen TR-FRET)
PI3K β = PI3K β (Homo sapiens (Human), UniProt P42338); experiment: PI 3-Kinase (human) HTRF assay, p110β/p85α
[1] = PI 3-Kinase (human) HTRF assay, p110δ/p85α; details: read-out: PI3K γ IC50

mTORC, sequence (P42345 1360-2549): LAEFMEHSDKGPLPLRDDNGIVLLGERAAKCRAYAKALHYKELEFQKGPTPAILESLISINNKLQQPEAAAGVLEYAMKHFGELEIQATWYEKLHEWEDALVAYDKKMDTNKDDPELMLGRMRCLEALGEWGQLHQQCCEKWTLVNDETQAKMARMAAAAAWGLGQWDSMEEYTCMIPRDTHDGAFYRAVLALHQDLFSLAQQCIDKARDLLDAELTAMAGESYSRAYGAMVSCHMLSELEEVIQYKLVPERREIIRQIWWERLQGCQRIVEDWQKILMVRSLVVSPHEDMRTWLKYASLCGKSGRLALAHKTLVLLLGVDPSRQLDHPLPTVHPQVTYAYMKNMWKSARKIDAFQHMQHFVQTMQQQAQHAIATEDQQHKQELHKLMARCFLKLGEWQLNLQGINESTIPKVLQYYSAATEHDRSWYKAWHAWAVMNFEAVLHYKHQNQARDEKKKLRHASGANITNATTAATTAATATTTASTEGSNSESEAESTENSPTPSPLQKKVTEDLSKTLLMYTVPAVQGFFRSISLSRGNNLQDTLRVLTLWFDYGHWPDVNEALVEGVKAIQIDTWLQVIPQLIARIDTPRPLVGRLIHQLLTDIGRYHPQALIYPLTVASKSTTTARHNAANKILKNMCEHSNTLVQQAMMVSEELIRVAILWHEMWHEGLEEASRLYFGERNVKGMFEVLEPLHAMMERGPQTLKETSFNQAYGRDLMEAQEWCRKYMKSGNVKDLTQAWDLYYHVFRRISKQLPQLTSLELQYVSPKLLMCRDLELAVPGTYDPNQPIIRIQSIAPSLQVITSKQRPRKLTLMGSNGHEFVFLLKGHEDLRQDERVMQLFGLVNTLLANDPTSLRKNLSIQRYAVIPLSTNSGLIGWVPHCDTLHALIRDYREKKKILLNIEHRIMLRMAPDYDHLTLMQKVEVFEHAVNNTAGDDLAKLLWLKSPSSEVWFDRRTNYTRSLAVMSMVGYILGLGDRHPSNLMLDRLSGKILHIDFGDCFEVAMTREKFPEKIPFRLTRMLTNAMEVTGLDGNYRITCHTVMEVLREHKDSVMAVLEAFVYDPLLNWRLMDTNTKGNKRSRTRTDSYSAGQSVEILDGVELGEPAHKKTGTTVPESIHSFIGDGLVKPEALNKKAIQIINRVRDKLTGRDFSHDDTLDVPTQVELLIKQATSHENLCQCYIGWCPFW
PI3K β, sequence (P42338 whole entry): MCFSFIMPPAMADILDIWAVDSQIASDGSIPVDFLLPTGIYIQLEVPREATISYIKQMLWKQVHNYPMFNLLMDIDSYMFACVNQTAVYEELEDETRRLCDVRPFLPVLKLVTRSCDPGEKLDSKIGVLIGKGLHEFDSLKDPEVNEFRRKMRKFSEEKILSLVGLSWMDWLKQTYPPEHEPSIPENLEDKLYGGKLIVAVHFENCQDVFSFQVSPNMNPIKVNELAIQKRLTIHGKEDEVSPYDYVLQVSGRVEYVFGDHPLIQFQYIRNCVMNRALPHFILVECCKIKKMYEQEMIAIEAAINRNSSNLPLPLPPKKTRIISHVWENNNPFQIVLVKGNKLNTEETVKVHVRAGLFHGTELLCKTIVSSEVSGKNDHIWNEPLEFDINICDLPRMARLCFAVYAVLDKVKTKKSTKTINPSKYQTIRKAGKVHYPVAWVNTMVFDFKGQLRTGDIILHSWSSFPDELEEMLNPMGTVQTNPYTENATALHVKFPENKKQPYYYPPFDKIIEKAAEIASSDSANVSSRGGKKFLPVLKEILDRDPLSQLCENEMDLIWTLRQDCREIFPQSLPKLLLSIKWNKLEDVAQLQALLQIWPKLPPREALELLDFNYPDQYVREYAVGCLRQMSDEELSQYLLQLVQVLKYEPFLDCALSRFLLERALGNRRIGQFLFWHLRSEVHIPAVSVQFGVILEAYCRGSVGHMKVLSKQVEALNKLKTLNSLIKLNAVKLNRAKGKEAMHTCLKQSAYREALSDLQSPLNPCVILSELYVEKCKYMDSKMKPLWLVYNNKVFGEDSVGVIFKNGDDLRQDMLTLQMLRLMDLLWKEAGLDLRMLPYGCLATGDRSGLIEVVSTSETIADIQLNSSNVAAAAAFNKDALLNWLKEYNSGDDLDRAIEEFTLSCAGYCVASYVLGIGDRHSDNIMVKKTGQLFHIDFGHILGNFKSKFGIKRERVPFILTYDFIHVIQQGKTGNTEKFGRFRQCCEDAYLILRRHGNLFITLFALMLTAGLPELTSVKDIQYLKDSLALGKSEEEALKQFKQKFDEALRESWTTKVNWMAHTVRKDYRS
PI3K β, sequence (P27986 whole entry partner): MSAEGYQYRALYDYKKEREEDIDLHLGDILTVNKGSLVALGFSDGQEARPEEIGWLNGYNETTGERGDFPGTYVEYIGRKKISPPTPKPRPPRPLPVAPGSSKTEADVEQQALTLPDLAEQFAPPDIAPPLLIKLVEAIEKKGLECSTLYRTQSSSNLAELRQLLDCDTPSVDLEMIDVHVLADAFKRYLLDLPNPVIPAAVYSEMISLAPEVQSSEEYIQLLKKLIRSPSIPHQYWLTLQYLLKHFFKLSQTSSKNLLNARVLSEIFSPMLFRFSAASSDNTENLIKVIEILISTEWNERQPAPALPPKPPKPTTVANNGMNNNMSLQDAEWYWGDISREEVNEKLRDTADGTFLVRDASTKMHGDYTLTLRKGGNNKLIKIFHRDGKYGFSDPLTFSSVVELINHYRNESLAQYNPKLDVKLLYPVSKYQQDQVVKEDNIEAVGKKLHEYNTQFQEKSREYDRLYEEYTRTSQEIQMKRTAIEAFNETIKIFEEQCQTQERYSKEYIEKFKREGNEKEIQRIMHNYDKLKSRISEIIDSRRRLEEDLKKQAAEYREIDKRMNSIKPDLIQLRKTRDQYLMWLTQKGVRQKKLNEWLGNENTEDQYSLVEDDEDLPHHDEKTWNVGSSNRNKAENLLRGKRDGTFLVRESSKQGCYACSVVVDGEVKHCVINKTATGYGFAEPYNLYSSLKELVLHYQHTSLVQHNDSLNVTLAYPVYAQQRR
PI3K α, sequence (P42336 whole entry): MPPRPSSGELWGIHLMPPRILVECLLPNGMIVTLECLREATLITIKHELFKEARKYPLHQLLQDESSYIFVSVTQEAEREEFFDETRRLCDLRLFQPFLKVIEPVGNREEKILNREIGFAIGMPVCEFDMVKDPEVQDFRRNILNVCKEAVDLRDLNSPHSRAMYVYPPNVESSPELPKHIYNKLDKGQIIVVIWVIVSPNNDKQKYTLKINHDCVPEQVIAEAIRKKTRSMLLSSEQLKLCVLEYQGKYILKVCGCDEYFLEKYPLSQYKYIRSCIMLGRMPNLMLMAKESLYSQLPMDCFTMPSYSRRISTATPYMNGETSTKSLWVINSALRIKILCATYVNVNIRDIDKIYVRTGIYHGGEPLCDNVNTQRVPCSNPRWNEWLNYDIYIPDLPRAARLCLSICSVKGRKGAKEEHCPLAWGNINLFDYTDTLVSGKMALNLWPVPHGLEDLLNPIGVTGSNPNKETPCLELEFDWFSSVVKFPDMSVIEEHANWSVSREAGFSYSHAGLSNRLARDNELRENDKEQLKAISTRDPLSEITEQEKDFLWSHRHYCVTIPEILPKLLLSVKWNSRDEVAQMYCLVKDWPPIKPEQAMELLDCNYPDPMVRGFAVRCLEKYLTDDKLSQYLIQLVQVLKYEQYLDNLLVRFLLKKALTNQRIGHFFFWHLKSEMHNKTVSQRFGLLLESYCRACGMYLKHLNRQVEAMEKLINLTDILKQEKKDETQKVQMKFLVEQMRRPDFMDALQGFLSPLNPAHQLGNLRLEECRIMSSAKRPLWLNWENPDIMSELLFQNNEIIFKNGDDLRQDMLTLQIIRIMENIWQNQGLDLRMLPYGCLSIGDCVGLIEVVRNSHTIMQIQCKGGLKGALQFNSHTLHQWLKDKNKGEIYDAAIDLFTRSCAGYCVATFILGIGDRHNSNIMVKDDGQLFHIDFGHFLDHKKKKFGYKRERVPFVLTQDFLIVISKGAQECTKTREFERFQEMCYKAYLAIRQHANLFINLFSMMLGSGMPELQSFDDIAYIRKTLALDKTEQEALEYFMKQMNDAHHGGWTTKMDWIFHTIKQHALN
PI3K α, sequence (P27986 whole entry partner): as the sequence (P27986 whole entry partner) above

| Compound | IC50 (PI3K α) [µM] | IC50 (PI3K δ) [µM] | IC50 (PI3K γ; read-out: PI3K γ IC50) [µM] | IC50 (mTORC) [µM] | IC50 (PI3K β) [µM] | IC50 [1] [µM] | IC50 (PI3K γ; read-out: PI3K δ IC50) [µM] |
| --- | --- | --- | --- | --- | --- | --- | --- |
| Nc1nc2cc(-c3ccc4ncc(-c5ccc6nc(N)oc6c5)n4c3)ccc2o1 [Compound 50] | < 0.1 | < 10 | < 0.1 | > 10 | – | – | – |
| C[C@@H]1CN(C2CN(c3cnc4ccc(-c5ccc6oc(N)nc6c5)nc4c3)C2)CCN1 | < 0.1 | < 1 | < 1 | > 10 | < 10 | – | – |
| C[C@H]1CN(c2cnc3ccc(-c4ccc5oc(N)nc5c4)nc3c2)CCN1 | < 0.1 | < 10 | < 1 | > 10 | < 0.1 | – | – |
| C[C@@H]1CN(C2CN(c3cnc4ccc(-c5ccc6oc(N)nc6c5)nc4c3)C2)CCN1C | < 0.1 | < 1 | – | > 10 | < 10 | – | – |
| Nc1nc2cc(-c3ccc4ncc(C(=O)N5CCOCC5)n4c3)ccc2o1 | < 0.1 | < 10 | < 10 | < 10 | < 10 | – | – |
| Cn1cc(-c2cnc3ccc(-c4ccc5oc(N)nc5c4)cn23)cn1 [Compound 41] | < 0.1 | < 1 | < 1 | < 10 | – | – | – |
| Cn1cc(-c2ccnc3ccc(-c4ccc5oc(N)nc5c4)cc23)cn1 [Compound 26] | < 0.1 | < 0.1 | < 0.1 | < 1 | – | – | – |
| CN1CCC(n2cnc3ccc(-c4ccc5oc(N)nc5c4)cc3c2=O)CC1 [Compound 36] | < 0.1 | < 10 | > 10 | < 10 | – | – | – |
| Nc1nc2cc(-c3ccc4ncc(-c5ccnc(N6CCOCC6)c5)n4c3)ccc2o1 [Compound 52] | < 0.1 | < 0.1 | < 0.1 | < 10 | – | – | – |
| CN1CCC(Nc2ncnc3ccc(-c4ccc5oc(N)nc5c4)cc23)CC1 [Compound 35] | < 0.1 | < 0.1 | < 0.1 | < 10 | – | – | – |
| CN1CCN(C(=O)c2cnc3ccc(-c4ccc5oc(N)nc5c4)cn23)CC1 [Compound 44] | < 0.1 | < 10 | < 10 | < 10 | – | – | – |
| Nc1nc2cc(-c3ccc4ncn(C5CCOCC5)c(=O)c4c3)ccc2o1 | < 1 | > 10 | > 10 | > 10 | – | – | – |
| Nc1nc2cc(-c3ccc4ncc(OC5CCOCC5)nc4c3)ccc2o1 [Compound 49] | < 0.1 | < 10 | < 1 | < 10 | – | – | – |
| Nc1nc2cc(-c3ccc4nccn4c3)ccc2o1 [Compound 40] | < 10 | > 10 | < 10 | < 10 | – | – | – |
| C[C@H]1COCCN1C1CN(c2cnc3ccc(-c4ccc5oc(N)nc5c4)nc3n2)C1 | < 0.1 | < 10 | – | > 10 | > 10 | – | – |
| Nc1nc2cc(-c3ccc4ncc(N5CC(N6CCN(CC7CC7)CC6)C5)nc4c3)ccc2o1 | < 0.1 | – | – | > 10 | < 10 | < 10 | > 10 |
| CN1CCN(c2ccc(-c3cnc4ccc(-c5ccc6oc(N)nc6c5)cn34)cn2)CC1 [Compound 42] | < 0.1 | < 1 | < 1 | > 10 | – | – | – |
| Nc1nc2cc(-c3ccc4ncc(N5CC(C(=O)N6CCN(C7CC7)CC6)C5)nc4c3)ccc2o1 | < 0.1 | – | – | < 10 | < 10 | < 1 | < 1 |
| Nc1nc2cc(-c3ccc4ncc(N5CC[C@H](O)C5)nc4c3)ccc2o1 | < 0.1 | – | – | < 10 | < 1 | > 10 | < 1 |
| CN1CCN(C2CN(c3cnc4ccc(-c5ccc6oc(N)nc6c5)cc4n3)C2)CC1=O | < 0.1 | – | – | > 10 | < 10 | < 10 | < 1 |
| N#Cc1cnc2ccc(-c3ccc4oc(N)nc4c3)cc2c1-c1ccncc1 [Compound 46] | < 0.1 | < 0.1 | < 0.1 | < 0.1 | – | – | – |
